Laboratory results from ChEMBL document CHEMBL6153119, “Target Identification with Live-Cell Photoaffinity Labeling and Mechanism of Action Elucidation of ARN23765, a Highly Potent CFTR Corrector” (J Med Chem, 2025).
Active and inactive are the calls of the source. The calls are words filed in the database; no cut-off is given here.

Columns and labels:
Type in all cases: cell-based
[1] = biological target: Cystic fibrosis transmembrane conductance regulator (Homo sapiens) (UniProt P13569); assay: Corrector activity at wild-type CFTR (unknown origin) expressed in human CFBE41o- cells assessed as restoration of CFTR level at 1 uM preincubated with ARN23765 followed by compound addition measured after 2 hrs by pull down assay
[2] = system: Cystic fibrosis transmembrane conductance regulator (Homo sapiens), P13569 [F508del]; assay: Corrector activity at CFTR F508del mutant (unknown origin) expressed in human CFBE41o- cells co-expressing HS-YFP assessed as maximum restoration of channel function incubated for 24 hrs by florescence based analysis (reference value: 3.0)
[3] = system: Cystic fibrosis transmembrane conductance regulator (Homo sapiens), P13569 [F508del]; assay: Corrector activity at mature CFTR F508del mutant (unknown origin) expressed in human CFBE41o- cells assessed as restoration of CFTR level at 27 degreeC at 1 uM preincubated with ARN23765 followed by compound addition measured after 2 hrs by pull down assay
[4] = system: Cystic fibrosis transmembrane conductance regulator (Homo sapiens), P13569 [F508del]; assay: Corrector activity at immature CFTR F508del mutant (unknown origin) expressed in human CFBE41o- cells assessed as restoration of CFTR level at 27 degreeC at 1 uM preincubated with ARN23765 followed by compound addition measured after 2 hrs by pull down assay
[5] = system: Cystic fibrosis transmembrane conductance regulator (Homo sapiens), P13569 [F508del]; assay: Corrector activity at CFTR F508del mutant (unknown origin) expressed in human CFBE41o- cells assessed as restoration of CFTR level at 1 uM preincubated with ARN23765 followed by compound addition measured after 2 hrs by pull down assay
[6] = biological target: Cystic fibrosis transmembrane conductance regulator (Homo sapiens) (UniProt P13569); assay: Corrector activity at CFTR in human CFBE41o- cells harboring CFTR-/- assessed as restoration of CFTR level at 1 uM preincubated with ARN23765 followed by compound addition measured after 2 hrs by pull down assay
[7] = system: Cystic fibrosis transmembrane conductance regulator (Homo sapiens), P13569 [F508del/R1070W]; assay: Corrector activity at CFTR F508del/R1070W mutant (unknown origin) transfected in HEK293 cells assessed as increase in […] at 3 uM incubated for 24 hrs by Western blot analysis
[8] = system: Cystic fibrosis transmembrane conductance regulator (Homo sapiens), P13569 [F508del/R1070W]; assay: Corrector activity at CFTR F508del/R1070W mutant (unknown origin) transfected in HEK293 cells assessed as increase in protein maturation at 3 uM incubated for 24 hrs by Western blot analysis
[9] = system: Cystic fibrosis transmembrane conductance regulator (Homo sapiens), P13569 [F508del/N71I]; assay: Corrector activity at CFTR F508del/N71I mutant (unknown origin) transfected in HEK293 cells assessed as increase in protein maturation at 10 nM incubated for 24 hrs by Western blot analysis
[10] = biological target: Cystic fibrosis transmembrane conductance regulator (Homo sapiens) (UniProt P13569); assay: Corrector activity at CFTR (unknown origin) transfected in HEK293 cells harboring CFTR fragment containing MSD1 assessed as increase in expression of CFTR level at 10 nM incubated for 24 hrs by Western blot analysis
[11] = system: Cystic fibrosis transmembrane conductance regulator (Homo sapiens), P13569 [R170G]; assay: Corrector activity at CFTR R170G mutant (unknown origin) transfected in HEK293 cells assessed as increase in […] at 10 nM incubated for 24 hrs by Western blot analysis
[12] = system: Cystic fibrosis transmembrane conductance regulator (Homo sapiens), P13569 [F508del/W361A]; assay: Corrector activity at CFTR F508del/W361A mutant (unknown origin) transfected in HEK293 cells assessed as increase in protein maturation at 10 nM incubated for 24 hrs by Western blot analysis
[13] = system: Cystic fibrosis transmembrane conductance regulator (Homo sapiens), P13569 [F508del/R1070W]; assay: Corrector activity at CFTR F508del/R1070W mutant (unknown origin) transfected in HEK293 cells assessed as increase in […] at 10 nM incubated for 24 hrs by Western blot analysis
[14] = system: Cystic fibrosis transmembrane conductance regulator (Homo sapiens), P13569 [F508del]; assay: Corrector activity at CFTR F508del mutant (unknown origin) expressed in human CFBE41o- cells assessed as restoration of CFTR level at 25 uM incubated for 30 mins by pull down assay
HEK293 = assay: Corrector activity at CFTR F508del/A198Y mutant (unknown origin) transfected in HEK293 cells assessed as increase in protein maturation at 10 nM incubated for 24 hrs by Western blot analysis; details: Homo sapiens
[15] = biological target: Cystic fibrosis transmembrane conductance regulator (Homo sapiens) (UniProt P13569); assay: Corrector activity at CFTR (unknown origin) transfected in HEK293 cells harboring CFTR fragment containing MSD1 assessed as increase in half life of CFTR MSD1 at 10 nM incubated for 24 hrs by Western blot analysis
[16] = system: Cystic fibrosis transmembrane conductance regulator (Homo sapiens), P13569 [F508del/S364F]; assay: Corrector activity at CFTR F508del/S364F mutant (unknown origin) transfected in HEK293 cells assessed as increase in protein maturation at 10 nM incubated for 24 hrs by Western blot analysis
[17] = biological target: Cystic fibrosis transmembrane conductance regulator (Homo sapiens) (UniProt P13569); assay: Corrector activity at wild-type CFTR (unknown origin) expressed in human CFBE41o- cells assessed as restoration of CFTR level at 25 uM incubated for 30 mins by pull down assay
[18] = biological target: Cystic fibrosis transmembrane conductance regulator (Homo sapiens) (UniProt P13569); assay: Corrector activity at CFTR (unknown origin) transfected in HEK293 cells harboring CFTR fragment containing del-R assessed as increase in expression of CFTR level at 10 nM incubated for 24 hrs by Western blot analysis
[19] = system: Cystic fibrosis transmembrane conductance regulator (Homo sapiens), P13569 [F508del/F81A]; assay: Corrector activity at CFTR F508del/F81A mutant (unknown origin) transfected in HEK293 cells assessed as increase in protein maturation at 10 nM incubated for 24 hrs by Western blot analysis
[20] = biological target: Cystic fibrosis transmembrane conductance regulator (Homo sapiens) (UniProt P13569); assay: Corrector activity at CFTR (unknown origin) transfected in HEK293 cells harboring CFTR fragment containing MSD1-NBD1 assessed as increase in expression of CFTR level at 10 nM incubated for 24 hrs by Western blot analysis
[21] = biological target: Cystic fibrosis transmembrane conductance regulator (Homo sapiens) (UniProt P13569); assay: Corrector activity at CFTR (unknown origin) transfected in HEK293 cells harboring CFTR fragment containing MSD2-NBD2 assessed as increase in expression of CFTR level at 10 nM incubated for 24 hrs by Western blot analysis
[22] = biological target: Cystic fibrosis transmembrane conductance regulator (Homo sapiens) (UniProt P13569); assay: Corrector activity at CFTR (unknown origin) transfected in HEK293 cells harboring CFTR fragment containing MSD2 assessed as effect on CFTR MSD2 stability at 10 nM incubated for 24 hrs by Western blot analysis
[23] = system: Cystic fibrosis transmembrane conductance regulator (Homo sapiens), P13569 [F508del/R1070W]; assay: Corrector activity at CFTR F508del/R1070W mutant (unknown origin) transfected in HEK293 cells assessed as increase in protein maturation at 10 nM incubated for 24 hrs by Western blot analysis
[24] = system: Cystic fibrosis transmembrane conductance regulator (Homo sapiens), P13569 [F508del/R74A]; assay: Corrector activity at CFTR F508del/R74A mutant (unknown origin) transfected in HEK293 cells assessed as increase in protein maturation at 10 nM incubated for 24 hrs by Western blot analysis
[25] = system: Cystic fibrosis transmembrane conductance regulator (Homo sapiens), P13569 [R170G]; assay: Corrector activity at CFTR R170G mutant (unknown origin) transfected in HEK293 cells assessed as increase in protein maturation at 10 nM incubated for 24 hrs by Western blot analysis
[26] = biological target: Cystic fibrosis transmembrane conductance regulator (Homo sapiens) (UniProt P13569); assay: Corrector activity at CFTR (unknown origin) transfected in HEK293 cells harboring CFTR fragment containing MSD1-NBD1-R assessed as increase in expression of CFTR level at 10 nM incubated for 24 hrs by Western blot analysis
[27] = biological target: Cystic fibrosis transmembrane conductance regulator (Homo sapiens) (UniProt P13569); assay: Corrector activity at CFTR (unknown origin) transfected in HEK293 cells harboring CFTR fragment containing MSD2 assessed as increase in expression of CFTR level at 10 nM incubated for 24 hrs by Western blot analysis
[28] = system: Cystic fibrosis transmembrane conductance regulator (Homo sapiens), P13569 [F508del/K68I]; assay: Corrector activity at CFTR F508del/K68I mutant (unknown origin) transfected in HEK293 cells assessed as increase in protein maturation at 10 nM incubated for 24 hrs by Western blot analysis
[29] = biological target: Cystic fibrosis transmembrane conductance regulator (Homo sapiens) (UniProt P13569); assay: Corrector activity at wild-type CFTR (unknown origin) expressed in human CFBE41o- cells assessed as restoration of CFTR level at 2.5 uM with UV light irradiation followed by CuAAC implementation by pull down assay

Chain of Cystic fibrosis transmembrane conductance regulator (Homo sapiens) (P13569 whole entry, looked up, the tested form may be a part): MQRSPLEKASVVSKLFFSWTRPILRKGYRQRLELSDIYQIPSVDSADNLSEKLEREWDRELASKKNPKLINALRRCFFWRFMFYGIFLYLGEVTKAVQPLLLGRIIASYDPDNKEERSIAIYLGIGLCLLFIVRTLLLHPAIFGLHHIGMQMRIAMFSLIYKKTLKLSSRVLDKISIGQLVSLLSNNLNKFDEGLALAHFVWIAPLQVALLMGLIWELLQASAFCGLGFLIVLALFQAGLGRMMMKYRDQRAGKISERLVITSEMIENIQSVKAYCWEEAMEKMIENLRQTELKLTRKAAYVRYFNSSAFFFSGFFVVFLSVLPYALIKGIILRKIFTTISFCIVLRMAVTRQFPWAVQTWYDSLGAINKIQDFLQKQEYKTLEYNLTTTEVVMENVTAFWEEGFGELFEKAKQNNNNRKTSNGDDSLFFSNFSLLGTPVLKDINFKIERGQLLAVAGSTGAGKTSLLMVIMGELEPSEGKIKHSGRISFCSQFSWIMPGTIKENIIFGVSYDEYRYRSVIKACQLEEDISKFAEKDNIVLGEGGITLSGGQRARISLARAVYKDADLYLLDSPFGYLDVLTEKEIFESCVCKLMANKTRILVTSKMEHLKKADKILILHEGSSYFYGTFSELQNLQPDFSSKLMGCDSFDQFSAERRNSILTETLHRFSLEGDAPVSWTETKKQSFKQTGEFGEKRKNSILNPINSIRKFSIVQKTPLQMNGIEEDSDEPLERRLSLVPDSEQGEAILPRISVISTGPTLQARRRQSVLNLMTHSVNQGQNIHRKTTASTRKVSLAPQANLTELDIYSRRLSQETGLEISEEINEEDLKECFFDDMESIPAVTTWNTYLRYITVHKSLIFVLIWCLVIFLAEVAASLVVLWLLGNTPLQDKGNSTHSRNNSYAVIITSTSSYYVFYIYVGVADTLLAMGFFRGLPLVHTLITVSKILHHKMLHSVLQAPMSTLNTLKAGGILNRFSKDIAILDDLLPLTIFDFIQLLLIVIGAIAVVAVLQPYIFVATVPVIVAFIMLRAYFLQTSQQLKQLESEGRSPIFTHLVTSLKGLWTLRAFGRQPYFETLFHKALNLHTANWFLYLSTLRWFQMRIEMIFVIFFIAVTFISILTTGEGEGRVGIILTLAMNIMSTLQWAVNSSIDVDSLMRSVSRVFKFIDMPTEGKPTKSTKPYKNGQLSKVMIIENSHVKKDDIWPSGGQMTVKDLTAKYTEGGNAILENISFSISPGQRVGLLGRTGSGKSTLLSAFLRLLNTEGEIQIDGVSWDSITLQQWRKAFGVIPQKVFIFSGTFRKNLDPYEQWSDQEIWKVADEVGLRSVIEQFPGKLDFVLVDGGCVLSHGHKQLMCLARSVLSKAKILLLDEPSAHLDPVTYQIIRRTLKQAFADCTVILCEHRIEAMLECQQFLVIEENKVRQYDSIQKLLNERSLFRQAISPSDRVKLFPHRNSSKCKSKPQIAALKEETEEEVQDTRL
Chain of Cystic fibrosis transmembrane conductance regulator (Homo sapiens), P13569 [F508del] (P13569 as listed by the source): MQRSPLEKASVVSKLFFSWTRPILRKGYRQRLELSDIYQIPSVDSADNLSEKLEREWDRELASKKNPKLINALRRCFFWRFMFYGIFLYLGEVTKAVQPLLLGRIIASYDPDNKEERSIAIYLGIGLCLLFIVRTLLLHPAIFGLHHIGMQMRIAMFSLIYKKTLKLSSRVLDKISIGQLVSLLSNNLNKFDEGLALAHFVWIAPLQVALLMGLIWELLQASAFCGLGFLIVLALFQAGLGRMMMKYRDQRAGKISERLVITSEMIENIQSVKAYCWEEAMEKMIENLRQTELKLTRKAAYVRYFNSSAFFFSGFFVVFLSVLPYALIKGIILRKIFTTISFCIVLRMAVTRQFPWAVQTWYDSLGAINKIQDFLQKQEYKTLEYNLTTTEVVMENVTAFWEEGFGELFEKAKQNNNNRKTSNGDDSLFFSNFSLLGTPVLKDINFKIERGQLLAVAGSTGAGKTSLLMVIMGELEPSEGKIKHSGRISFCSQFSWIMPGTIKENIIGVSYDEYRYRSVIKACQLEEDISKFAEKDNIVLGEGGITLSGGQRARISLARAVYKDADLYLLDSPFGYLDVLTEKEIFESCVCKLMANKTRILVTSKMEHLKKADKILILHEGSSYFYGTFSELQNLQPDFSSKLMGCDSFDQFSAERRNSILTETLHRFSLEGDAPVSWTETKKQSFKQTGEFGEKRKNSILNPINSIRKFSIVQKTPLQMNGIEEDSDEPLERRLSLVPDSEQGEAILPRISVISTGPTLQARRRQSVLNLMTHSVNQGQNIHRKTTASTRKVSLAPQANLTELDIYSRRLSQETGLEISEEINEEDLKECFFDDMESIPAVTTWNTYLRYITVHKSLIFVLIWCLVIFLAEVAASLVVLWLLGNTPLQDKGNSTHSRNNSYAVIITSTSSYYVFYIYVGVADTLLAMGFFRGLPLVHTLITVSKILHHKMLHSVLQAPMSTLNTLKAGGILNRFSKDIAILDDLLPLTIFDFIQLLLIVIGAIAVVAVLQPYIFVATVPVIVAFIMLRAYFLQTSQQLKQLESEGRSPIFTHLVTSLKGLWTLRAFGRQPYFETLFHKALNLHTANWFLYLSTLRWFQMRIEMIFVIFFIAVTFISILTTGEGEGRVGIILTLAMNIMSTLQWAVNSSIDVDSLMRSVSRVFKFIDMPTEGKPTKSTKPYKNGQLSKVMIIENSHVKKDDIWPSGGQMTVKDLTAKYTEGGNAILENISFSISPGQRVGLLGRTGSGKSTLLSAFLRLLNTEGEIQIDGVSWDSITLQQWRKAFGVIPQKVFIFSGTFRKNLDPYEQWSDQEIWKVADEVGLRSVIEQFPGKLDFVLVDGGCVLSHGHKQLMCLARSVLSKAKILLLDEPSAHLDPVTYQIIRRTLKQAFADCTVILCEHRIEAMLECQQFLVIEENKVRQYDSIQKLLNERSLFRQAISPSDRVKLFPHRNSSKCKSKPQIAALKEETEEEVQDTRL
Chain of Cystic fibrosis transmembrane conductance regulator (Homo sapiens), P13569 [F508del/R1070W] (P13569 as listed by the source): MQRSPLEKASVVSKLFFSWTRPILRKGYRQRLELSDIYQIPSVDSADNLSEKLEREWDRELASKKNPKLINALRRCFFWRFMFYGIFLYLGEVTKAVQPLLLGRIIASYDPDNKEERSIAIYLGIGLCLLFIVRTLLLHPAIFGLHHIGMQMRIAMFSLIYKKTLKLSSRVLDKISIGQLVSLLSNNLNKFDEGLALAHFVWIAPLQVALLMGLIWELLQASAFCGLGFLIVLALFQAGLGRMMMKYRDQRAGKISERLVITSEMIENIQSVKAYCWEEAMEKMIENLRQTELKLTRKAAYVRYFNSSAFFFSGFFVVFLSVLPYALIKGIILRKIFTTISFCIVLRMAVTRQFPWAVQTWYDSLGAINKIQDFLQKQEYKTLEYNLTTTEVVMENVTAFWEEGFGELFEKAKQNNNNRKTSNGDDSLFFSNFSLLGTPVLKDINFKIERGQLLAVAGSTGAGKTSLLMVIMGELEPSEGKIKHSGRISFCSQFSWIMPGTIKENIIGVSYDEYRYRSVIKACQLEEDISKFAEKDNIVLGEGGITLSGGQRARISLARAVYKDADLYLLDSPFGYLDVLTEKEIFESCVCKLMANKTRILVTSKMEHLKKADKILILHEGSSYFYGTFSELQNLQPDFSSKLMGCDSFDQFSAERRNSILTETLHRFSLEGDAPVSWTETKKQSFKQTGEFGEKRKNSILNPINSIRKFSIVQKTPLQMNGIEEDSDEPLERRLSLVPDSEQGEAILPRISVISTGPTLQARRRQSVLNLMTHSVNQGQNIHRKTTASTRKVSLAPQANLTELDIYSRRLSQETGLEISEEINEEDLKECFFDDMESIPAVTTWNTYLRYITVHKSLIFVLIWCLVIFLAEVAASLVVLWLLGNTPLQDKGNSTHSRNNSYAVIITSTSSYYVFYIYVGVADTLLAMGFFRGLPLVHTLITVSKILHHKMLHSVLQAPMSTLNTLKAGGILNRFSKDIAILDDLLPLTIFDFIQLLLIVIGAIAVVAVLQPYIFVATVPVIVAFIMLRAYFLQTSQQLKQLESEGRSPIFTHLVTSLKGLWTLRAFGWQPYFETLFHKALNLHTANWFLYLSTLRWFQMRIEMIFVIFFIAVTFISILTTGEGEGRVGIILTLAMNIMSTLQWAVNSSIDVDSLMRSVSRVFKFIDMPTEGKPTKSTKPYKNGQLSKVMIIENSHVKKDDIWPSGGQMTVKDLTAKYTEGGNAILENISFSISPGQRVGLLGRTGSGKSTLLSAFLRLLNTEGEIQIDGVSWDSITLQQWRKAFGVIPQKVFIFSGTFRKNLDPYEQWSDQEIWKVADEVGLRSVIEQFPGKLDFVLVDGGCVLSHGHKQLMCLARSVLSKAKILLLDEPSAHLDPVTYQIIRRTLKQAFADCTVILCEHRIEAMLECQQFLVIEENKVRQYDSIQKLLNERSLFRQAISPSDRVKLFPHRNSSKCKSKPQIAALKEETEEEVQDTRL

**Q.** Which Activity [1] does the source give for C[C@H]1NC(=O)N[C@H]1CCCCCC(=O)NCCOCCOCCOCCn1cc(CCC2(CCNC(=O)c3ccc(O[C@H]4CCCc5c(C(F)(F)F)nn(-c6cccc(C(=O)N(C)c7ccc8c(c7)OC(F)(F)O8)c6)c54)cc3)N=N2)nn1 here?
**A.** inactive

**Q.** What about the Activity [2] of the same molecule?
**A.** 2.8

**Q.** And the Activity [3]?
**A.** Active

**Q.** And the Activity [4]?
**A.** Active

**Q.** And the Activity [5]?
**A.** inactive

**Q.** And the Activity [6]?
**A.** inactive

**Q.** With CC(C)(CO)c1cc2cc(NC(=O)C3(c4ccc5c(c4)OC(F)(F)O5)CC3)c(F)cc2n1C[C@@H](O)CO as the molecule, how does the Activity [7] read?
**A.** Active

**Q.** And the Activity [8]?
**A.** Active

**Q.** What does the source list for C[C@H]1NC(=O)N[C@H]1CCCCCC(=O)NCCOCCOCCOCCn1cc(-c2ccc(O[C@H]3CCCc4c(C(F)(F)F)nn(-c5cccc(C(=O)N(C)c6ccc(C7(C(F)(F)F)N=N7)cc6)c5)c43)cc2)nn1?
**A.** Activity [1]: inactive; Activity [3]: Active; Activity [4]: Active; Activity [5]: inactive; Activity [6]: inactive

**Q.** Which results are given for CN(C(=O)c1cccc(-n2nc(C(F)(F)F)c3c2[C@@H](Oc2ccc(C(=O)O)cc2)CCC3)c1)c1ccc2c(c1)OC(F)(F)O2?
**A.** Activity [9]: Active; Activity [10]: Active; Activity [11]: Active; Activity [12]: Not active; Protein Maturation Markedly Reduced Or Abolished; Activity [13]: Active; Activity [14]: inactive; Activity (HEK293): Not active; Protein Maturation Markedly Reduced Or Abolished; Activity [15]: Active; Activity [16]: Not active; Slightly Reduced Protein Maturation; Activity [17]: inactive; Activity [18]: Active; Activity [19]: Not active; Protein Maturation Markedly Reduced Or Abolished; Activity [20]: Active; Activity [21]: inactive; Activity [22]: inactive; Activity [23]: Active; Activity [24]: Not active; Slightly Reduced Protein Maturation; Activity [25]: Active; Activity [26]: Active; Activity [27]: inactive; Activity [28]: Active

**Q.** For C#Cc1ccc(O[C@H]2CCCc3c(C(F)(F)F)nn(-c4cccc(C(=O)N(C)c5ccc(C6(C(F)(F)F)N=N6)cc5)c4)c32)cc1, which Activity [29] is on record?
**A.** inactive
